Measured values as given in ChEMBL document CHEMBL6134863, “Novel Mitochondria-Targeted Asymmetric Heptamethine Cyanine Dye for Cancer Targeted NIR Imaging and Potent Necrosis and Senescence Induction with Prolonged Retention” (J Med Chem, 2025).
Active and inactive are the calls of the source. The calls are words filed in the database; no cut-off is given here.

Columns and labels:
[1] = Distribution coefficient, logD of compound; type: physicochemical; conditions: octanol/water
[2] = Drug accumulation in tumor to muscle of BALB/c mouse implanted with mouse 4T1 cells at 0.5 mg/kg, iv measured at 4 to 168 hrs; type: ADME, organism-based; conditions: in vivo, time 4-168 hrs
[3] = Partition coefficient, logP of compound; type: physicochemical; conditions: octanol/water
[4] = Drug uptake in mouse 4T1 cells assessed as increase in red fluorescence intensity at 5 uM incubated for 30 mins by CY7 staining based microscopic analysis; type: ADME, cell-based; conditions: 4t1, 0.5 h
[5] = Ratio of drug level in tumor to muscle of BALB/c mouse implanted with mouse 4T1 cells at 0.5 mg/kg, iv measured at 12 to 24 hrs; type: ADME, organism-based; conditions: in vivo, time 12-24 hrs
[6] = Drug uptake in human NCI-H226 cells assessed as increase in red fluorescence intensity at 5 uM incubated for 30 mins by CY7 staining based microscopic analysis; type: ADME, cell-based; conditions: nci-h226, 0.5 h
[7] = Drug uptake in human NCI-H226 cells assessed as increase in green fluorescence intensity at 5 uM incubated for 30 mins by F-actin staining staining based microscopic analysis; type: ADME, cell-based; conditions: nci-h226, 0.5 h
[8] = Drug uptake in mouse 4T1 cells assessed as increase in green fluorescence intensity at 5 uM incubated for 30 mins by F-actin staining staining based microscopic analysis; type: ADME, cell-based; conditions: 4t1, 0.5 h
[9] = Solubility of compound in DMSO-H2O; type: physicochemical
[10] = test system: NCI-H226; assay: Cytotoxicity against human NCI-H226 assessed as decrease in cell viability up to 10 uM incubated for 24 hrs by CCK-8 assay; type: functional, cell-based
[11] = Photostability of compound in DMSO-H2O incubated for 1 hr irradiated with deuterium lamp by absorbance based analysis; type: physicochemical; conditions: read-out: Stability

SMILES | logD [1] | Drug uptake [2] | logP [3] | other results
COC(=O)CNC(=O)c1ccc(CN2/C(=C/C=C3\CCCC(/C=C/C4=[N+](Cc5ccc(C(=O)NCC(=O)OC)cc5)c5ccc6ccccc6c5C4(C)C)=C3Cl)C(C)(C)c3c2ccc2ccccc32)cc1.[Br-] | 5.6 | Active | 7.23 | –
CC1(C)C(/C=C/C2=C(Cl)C(=C/C=C3/N(CCOc4ccccc4C(=O)O)c4ccc5ccccc5c4C3(C)C)/CCC2)=[N+](CCOc2ccccc2C(=O)O)c2ccc3ccccc3c21 | 3.73 | – | 7.27 | –
COC(=O)CCC(=O)CNC(=O)c1ccc(CN2/C(=C/C=C3\CCCC(/C=C/C4=[N+](Cc5ccc(C(=O)NCC(=O)CCC(=O)OC)cc5)c5ccccc5C4(C)C)=C3Cl)C(C)(C)c3ccccc32)cc1.[Br-] | 4.48 | Active | 6.17 | Drug uptake [4]: Active; Ratio [5]: > 5; Drug uptake [6]: Active; Drug uptake [7]: Active; Drug uptake [8]: Active
CC1(C)C(/C=C/C=C/C=C/C=C2/N(Cc3ccc(C(=O)O)cc3)c3ccc4ccccc4c3C2(C)C)=[N+](Cc2ccc(C(=O)O)cc2)c2ccc3ccccc3c21.[Br-] | 3.59 | – | 7.06 | solubility [9]: 170 µg/mL
CC1(C)C(/C=C/C=C/C=C/C=C2/N(CCCOc3ccc(C(=O)O)cc3)c3ccc4ccccc4c3C2(C)C)=[N+](CCCOc2ccc(C(=O)O)cc2)c2ccc3ccccc3c21.[Br-] | 3.79 | – | 7.26 | solubility [9]: 170 µg/mL
Cc1ccc2c(c1)C(C)(C)C(/C=C/C1=C(Cl)C(=C/C=C3/N(CCCOc4ccc(C(=O)O)cc4)c4ccc(C)cc4C3(C)C)/CCC1)=[N+]2CCCOc1ccc(C(=O)O)cc1.[Br-] | 4.02 | Active | 6.41 | –
COC(=O)CNC(=O)c1ccc(OCCCN2/C(=C/C=C3\CCCC(/C=C/C4=[N+](CCCOc5ccc(C(=O)NCC(=O)OC)cc5)c5ccc6ccccc6c5C4(C)C)=C3Cl)C(C)(C)c3c2ccc2ccccc32)cc1.[Br-] | 5.51 | Active | 7.45 | –
COC(=O)CNC(=O)CCN1/C(=C/C=C2\CCCC(/C=C/C3=[N+](CCC(=O)NCC(=O)OC)c4ccc5ccccc5c4C3(C)C)=C2Cl)C(C)(C)c2c1ccc1ccccc21 | 3.39 | – | 6.18 | –
CC1(C)C(/C=C/C=C/C=C/C=C2\N(CCCCS(=O)(=O)O)c3ccc4ccccc4c3C2(C)C)=[N+](CCCCS(=O)(=O)[O-])c2ccc3ccccc3c21 [INDOCYANINE GREEN] | – | – | – | Activity [10]: Active; remaining at 1 h [11]: 95.2%
CC1(C)C(/C=C/C2=C(Cl)C(=C/C=C3/N(CCCOc4ccc(C(=O)O)cc4)c4ccc5ccccc5c4C3(C)C)/CCC2)=[N+](CCCOc2ccc(C(=O)O)cc2)c2ccc3ccccc3c21.[Br-] | 4.19 | Active | 7.24 | –
